Here are results for 7 compounds from patent US12486290B2, “Isoindolinone and indazole compounds for the degradation of EGFR” (C4 THERAPEUTICS, INC., priority 2019, dated 2025).

Holding throughout (format): cell-based
In experiment [1] the target is T1, EGFR L858R (NCI-H3255 cells) (Homo sapiens, UniProt P00533, L858R).
T1 construct: NCI-H3255 (harboring EGFR heterozygous L858R mutation); host or cells: NCI-H3255
The experiment can be described thus: EGFR (L858R) degradation analysis, Total EGFR (L858R) HTRF, NCI-H3255 cells. Particulars: 6 hours. Put shortly: (§1)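 Cells (10000/well NCI-H1975 and NCI-H1975+CS, 1000/well NCI-H3255) treated with 11-point half-log titrations from 10 μM top, in duplicate, for 6 hours at 37° C., 5% CO2. Total EGFR (L858R) quantified by HTRF FRET; untreated cells as negative and cell-free wells as positive control.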
Background: Time-resolved FRET reads energy transfer from a long-lived donor to a nearby acceptor.

The target in experiment [2] is T2, EGFR T790M/L858R (NCI-H1975 cells) (Homo sapiens, UniProt P00533, L858R/T790M).
T2 construct: NCI-H1975 (harboring EGFR heterozygous T790M/L858R mutations); host or cells: NCI-H1975
T2 sequence (P00533 25-1210 T790M/L858R): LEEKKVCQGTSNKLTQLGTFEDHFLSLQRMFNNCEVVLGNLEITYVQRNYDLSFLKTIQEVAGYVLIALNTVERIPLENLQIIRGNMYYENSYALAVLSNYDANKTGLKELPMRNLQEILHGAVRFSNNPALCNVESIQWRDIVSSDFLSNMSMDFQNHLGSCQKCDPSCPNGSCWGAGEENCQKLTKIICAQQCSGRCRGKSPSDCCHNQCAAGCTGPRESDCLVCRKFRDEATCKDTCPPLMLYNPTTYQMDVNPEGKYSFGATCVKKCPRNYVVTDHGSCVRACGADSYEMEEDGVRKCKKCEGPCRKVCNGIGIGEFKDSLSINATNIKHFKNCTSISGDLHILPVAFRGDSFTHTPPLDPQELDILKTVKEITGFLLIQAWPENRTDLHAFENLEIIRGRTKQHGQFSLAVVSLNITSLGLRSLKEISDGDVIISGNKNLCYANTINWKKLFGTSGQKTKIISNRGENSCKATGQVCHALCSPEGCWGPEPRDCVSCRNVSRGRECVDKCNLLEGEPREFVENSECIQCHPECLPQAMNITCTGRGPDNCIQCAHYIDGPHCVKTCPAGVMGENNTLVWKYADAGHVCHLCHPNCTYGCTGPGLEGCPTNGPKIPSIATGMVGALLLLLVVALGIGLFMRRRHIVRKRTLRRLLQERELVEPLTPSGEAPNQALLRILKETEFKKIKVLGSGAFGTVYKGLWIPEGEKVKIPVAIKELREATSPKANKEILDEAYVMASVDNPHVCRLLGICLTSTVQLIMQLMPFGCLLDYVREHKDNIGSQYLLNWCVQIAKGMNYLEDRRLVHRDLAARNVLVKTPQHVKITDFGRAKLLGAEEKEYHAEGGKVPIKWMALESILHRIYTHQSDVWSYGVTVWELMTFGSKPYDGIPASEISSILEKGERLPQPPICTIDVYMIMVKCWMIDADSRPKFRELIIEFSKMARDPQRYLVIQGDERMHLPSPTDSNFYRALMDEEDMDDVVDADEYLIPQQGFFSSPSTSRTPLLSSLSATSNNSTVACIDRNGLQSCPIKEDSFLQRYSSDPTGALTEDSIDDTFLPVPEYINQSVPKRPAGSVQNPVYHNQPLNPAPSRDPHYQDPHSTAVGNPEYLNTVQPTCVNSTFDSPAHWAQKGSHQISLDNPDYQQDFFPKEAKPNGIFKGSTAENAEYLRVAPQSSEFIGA
In words: EGFR (L858R) degradation analysis, Total EGFR (L858R) HTRF, NCI-H1975 cells. Particulars: 6 hours. Put shortly: as §1

In experiment [3] the target is T3, EGFR T790M/L858R/C797S (NCI-H1975+CS cells) (Homo sapiens, UniProt P00533, C797S/L858R/T790M).
T3 construct: NCI-H1975+CS (harboring EGFR heterozygous T/790M/L858R/C797S mutations) was generated using CRISPR technology; host or cells: NCI-H1975+CS (CRISPR-edited NCI-H1975)
T3 sequence (P00533 25-1210 T790M/C797S/L858R): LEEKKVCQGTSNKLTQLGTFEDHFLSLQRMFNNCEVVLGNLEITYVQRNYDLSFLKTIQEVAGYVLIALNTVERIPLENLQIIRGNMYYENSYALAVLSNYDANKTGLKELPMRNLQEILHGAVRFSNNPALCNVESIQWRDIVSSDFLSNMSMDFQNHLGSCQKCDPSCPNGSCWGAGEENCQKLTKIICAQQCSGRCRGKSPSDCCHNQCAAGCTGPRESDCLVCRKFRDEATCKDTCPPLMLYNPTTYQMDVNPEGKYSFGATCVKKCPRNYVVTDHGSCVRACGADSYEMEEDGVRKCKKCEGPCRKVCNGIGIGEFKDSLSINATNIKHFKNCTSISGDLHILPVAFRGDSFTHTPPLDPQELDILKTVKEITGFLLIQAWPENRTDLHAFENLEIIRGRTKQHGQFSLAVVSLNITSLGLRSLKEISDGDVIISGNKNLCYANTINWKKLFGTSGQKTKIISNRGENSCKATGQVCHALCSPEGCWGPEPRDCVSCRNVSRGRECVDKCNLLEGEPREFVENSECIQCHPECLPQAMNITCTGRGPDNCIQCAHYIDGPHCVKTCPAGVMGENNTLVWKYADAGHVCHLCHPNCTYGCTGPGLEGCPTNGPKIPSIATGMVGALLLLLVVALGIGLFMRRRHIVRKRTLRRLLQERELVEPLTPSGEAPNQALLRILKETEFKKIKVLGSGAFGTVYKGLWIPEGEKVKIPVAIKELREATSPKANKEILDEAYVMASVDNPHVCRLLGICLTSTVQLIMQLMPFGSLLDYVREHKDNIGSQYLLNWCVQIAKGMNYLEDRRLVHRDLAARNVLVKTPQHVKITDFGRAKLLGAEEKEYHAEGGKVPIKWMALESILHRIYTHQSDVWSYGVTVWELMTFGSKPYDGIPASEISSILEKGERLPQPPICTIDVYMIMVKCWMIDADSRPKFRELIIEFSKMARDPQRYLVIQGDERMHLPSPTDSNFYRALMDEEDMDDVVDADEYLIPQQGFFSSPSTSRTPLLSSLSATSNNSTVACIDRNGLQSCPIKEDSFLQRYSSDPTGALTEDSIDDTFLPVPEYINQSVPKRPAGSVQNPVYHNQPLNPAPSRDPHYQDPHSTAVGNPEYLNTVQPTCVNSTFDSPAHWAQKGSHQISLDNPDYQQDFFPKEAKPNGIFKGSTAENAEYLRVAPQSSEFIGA
In words: EGFR (L858R) degradation analysis, Total EGFR (L858R) HTRF, NCI-H1975+CS cells. Particulars: 6 hours, read-out: H1975 C797S clone EGFR DC50. The source says:
NCI-H1975 (harboring EGFR heterozygous T790M/L858R mutations) and NCI-H3255 (harboring EGFR heterozygous L858R mutation) were purchased from ATCC and NCI, respectively. NCI-H1975+CS (harboring EGFR heterozygous T/790M/L858R/C797S mutations) was generated using CRISPR technology to introduce the additional C797S mutation by Horizon Discovery. RPMI 1640 no-phenol red medium and fetal bovine serum (FBS) were purchased from Gibco (Grand Island, NY, USA). Cell culture flasks and 384-well microplates were acquired from VWR (Radnor, PA, USA). Total EGFR (L858R) HTRF assay kits were purchased from Cisbio (Bedford, MA, USA).
Degradation of EGFR protein containing L858R mutation was determined based on quantification of FRET signal using Total EGFR (L858R) HTRF assay kit. Test compounds were added to the 384-well plate from a top concentration of 10 μM with 11 points, half log titration in duplicates. NCI-H1975, NCI-H1975+CS or NCI-H3255 cells were added into 384-well plates at a cell density of 10000, 10000 or 1000 cells per well, respectively. The plates were kept at 37° C. with 5% CO2 for 6 hours. Cells treated in the absence of the test compound were the negative control. Positive control was set by wells containing all reagents but no cells. FRET signal was acquired on EnVision™ Multilabel Reader (PerkinElmer, Santa Clara, CA, USA).

T1 sequence (P00533 25-1210 L858R): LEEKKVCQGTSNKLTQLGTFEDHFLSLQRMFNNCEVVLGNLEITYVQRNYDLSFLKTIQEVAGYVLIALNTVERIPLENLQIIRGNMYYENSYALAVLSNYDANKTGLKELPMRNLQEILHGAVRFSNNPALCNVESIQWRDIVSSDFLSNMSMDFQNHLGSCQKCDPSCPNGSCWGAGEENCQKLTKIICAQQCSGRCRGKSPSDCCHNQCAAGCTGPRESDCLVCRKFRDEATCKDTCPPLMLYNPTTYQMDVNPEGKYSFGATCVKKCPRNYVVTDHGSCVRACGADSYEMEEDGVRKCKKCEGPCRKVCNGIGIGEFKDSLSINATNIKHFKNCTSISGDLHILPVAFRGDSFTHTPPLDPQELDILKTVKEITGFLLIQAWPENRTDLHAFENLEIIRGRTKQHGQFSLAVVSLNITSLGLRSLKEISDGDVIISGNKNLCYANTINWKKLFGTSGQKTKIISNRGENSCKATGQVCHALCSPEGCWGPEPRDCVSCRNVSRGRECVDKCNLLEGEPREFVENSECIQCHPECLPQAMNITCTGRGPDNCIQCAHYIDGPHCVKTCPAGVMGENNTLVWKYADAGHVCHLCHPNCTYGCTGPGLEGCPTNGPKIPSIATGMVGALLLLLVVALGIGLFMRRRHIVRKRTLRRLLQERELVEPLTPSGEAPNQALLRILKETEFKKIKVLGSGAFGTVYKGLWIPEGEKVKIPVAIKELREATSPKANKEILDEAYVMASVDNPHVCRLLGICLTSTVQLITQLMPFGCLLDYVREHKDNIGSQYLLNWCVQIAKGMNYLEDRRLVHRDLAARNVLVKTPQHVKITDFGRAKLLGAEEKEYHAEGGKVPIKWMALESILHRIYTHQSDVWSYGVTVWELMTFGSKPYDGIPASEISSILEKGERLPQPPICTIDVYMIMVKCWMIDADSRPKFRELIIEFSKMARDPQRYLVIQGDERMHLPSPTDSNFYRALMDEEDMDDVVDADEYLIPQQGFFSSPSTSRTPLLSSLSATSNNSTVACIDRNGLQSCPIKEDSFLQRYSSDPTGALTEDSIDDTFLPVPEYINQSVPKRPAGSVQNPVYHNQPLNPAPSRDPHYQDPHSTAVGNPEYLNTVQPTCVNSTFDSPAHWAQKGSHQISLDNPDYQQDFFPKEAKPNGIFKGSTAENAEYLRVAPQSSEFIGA

The term DC50 denotes the midpoint of the concentration-degradation curve. With `O=C1CCC(Nc2ccc(C3CCN(CC(=O)N4CCN(c5ccc(-c6cc(F)c7c(c6)C(=O)N(C(C(=O)Nc6nccs6)c6ncn8c6CCC8)C7)cc5)CC4)CC3)cc2)C(=O)N1` (stereo not drawn) [Compound 5, 2-(6,7-dihydro-5H-pyrrolo[1,2-c]imidazol-1-yl)-2-[6-[4-[4-[2-[4-[4-[(2,6-dioxo-3-piperidyl)amino]phenyl]-1-piperidyl]acetyl]piperazin-1-yl]phenyl]-4-fluoro-1-oxo-isoindolin-2-yl]-N-thiazol-2-yl-acetamide], the results for the half-maximal degradation concentration (DC50) in experiment [1], in experiment [2] and in experiment [3] were 6 nM, 20 nM and 17 nM, respectively.
Taken in the same sequence, the figures for `O=C1CCC(Nc2ccc(C3CCN(CC(=O)N4CCN(c5ccc(-c6cc(F)c7c(c6)C(=O)N(C(C(=O)Nc6nccs6)c6ncn8c6CCC8)C7)cc5)CC4)CC3)c(C(F)F)c2)C(=O)N1` (stereo not drawn) [Compound 15, 2-[6-[4-[4-[2-[4-[2-(difluoromethyl)-4-[(2,6-dioxo-3-piperidyl)amino]phenyl]-1-piperidyl]acetyl]piperazin-1-yl]phenyl]-4-fluoro-1-oxo-isoindolin-2-yl]-2-(6,7-dihydro-5H-pyrrolo[1,2-c]imidazol-1-yl)-N-thiazol-2-yl-acetamide] were 6 nM, 34 nM and 10 nM.
Taken in the same sequence, the figures for `N#Cc1cc(NC2CCC(=O)NC2=O)ccc1C1CCN(CC(=O)N2CCC(Oc3ccc(-c4cc(F)c5c(c4)C(=O)N(C(C(=O)Nc4nccs4)c4ncn6c4CCC6)C5)cc3)CC2)CC1` (stereo not drawn) [Compound 37, 2-(6-(4-((1-(2-(4-(2-cyano-4-((2,6-dioxopiperidin-3-yl)amino)phenyl)piperidin-1-yl)acetyl)piperidin-4-yl)oxy)phenyl)-4-fluoro-1-oxoisoindolin-2-yl)-2-(6,7-dihydro-5H-pyrrolo[1,2-c]imidazol-1-yl)-N-(thiazol-2-yl)acetamide] were 16 nM, 46 nM and 19 nM.
For `O=C1CCC(Nc2ccc(C3CCN(CC(=O)N4CCN(c5ccc(-c6cc(F)c7c(c6)C(=O)N(C(C(=O)Nc6nccs6)c6ncn8c6C[C@@H](F)C8)C7)cc5)CC4)CC3)cc2)C(=O)N1` (mixture of isomers) [Compound 43, (2RS)-2-[6-[4-[4-[2-[4-[4-[[(3RS)-2,6-Dioxo-3-piperidyl]amino]phenyl]-1-piperidyl]acetyl]piperazin-1-yl]phenyl]-4-fluoro-1-oxo-isoindolin-2-yl]-2-[(6R)-6-fluoro-6,7-dihydro-5H-pyrrolo[1,2-c]imidazol-1-yl]-N-thiazol-2-yl-acetamide], the DC50 turned out to be 6 nM in experiment [1], 13 nM in experiment [2] and 18 nM in experiment [3].
In the case of `O=C1CC[C@@H](Nc2ccc(C3CCN(CC(=O)N4CCC(c5ccc(-c6cc(F)c7c(c6)C(=O)N(C(C(=O)Nc6nccs6)c6ncn8c6CCC8)C7)cc5)CC4)CC3)c(F)c2)C(=O)N1` (stereo partly drawn) [Compound 24, 2-(6,7-dihydro-5H-pyrrolo[1,2-c]imidazol-1-yl)-2-(6-(4-(1-(2-(4-(4-(((R)-2,6-dioxopiperidin-3-yl)amino)-2-fluorophenyl)piperidin-1-yl)acetyl)piperidin-4-yl)phenyl)-4-fluoro-1-oxoisoindolin-2-yl)-N-(thiazol-2-yl)acetamide], the half-maximal degradation concentration (DC50) was 6 nM in experiment [1], 70 nM in experiment [2] and 24 nM in experiment [3].
Taken in the same sequence, the figures for `O=C1CCC(Nc2ccc(C3CCN(CC(=O)N4CCN(Cc5ccc(-c6cc(F)c7c(c6)C(=O)N(C(C(=O)Nc6nccs6)c6ncn8c6CCC8)C7)cc5)CC4)CC3)c(F)c2)C(=O)N1` (stereo not drawn) [Compound 57, 2-(6,7-dihydro-5H-pyrrolo[1,2-c]imidazol-1-yl)-2-[6-[4-[[4-[2-[4-[4-[(2,6-dioxo-3-piperidyl)amino]-2-fluoro-phenyl]-1-piperidyl]acetyl]piperazin-1-yl]methyl]phenyl]-4-fluoro-1-oxo-isoindolin-2-yl]-N-thiazol-2-yl-acetamide] were 11 nM, 46 nM and 7 nM.
Take `N#Cc1cc(NC2CCC(=O)NC2=O)ccc1C1CCN(CC(=O)N2CCC(c3ccc(-c4cc(F)c5c(c4)C(=O)N(C(C(=O)Nc4nccs4)c4ncn6c4CCC6)C5)cc3)CC2)CC1` (stereo not drawn) [Compound 25, 2-(6-(4-(1-(2-(4-(2-cyano-4-((2,6-dioxopiperidin-3-yl)amino)phenyl)piperidin-1-yl)acetyl)piperidin-4-yl)phenyl)-4-fluoro-1-oxoisoindolin-2-yl)-2-(6,7-dihydro-5H-pyrrolo[1,2-c]imidazol-1-yl)-N-(thiazol-2-yl)acetamide]: the values for the DC50 in experiment [1], in experiment [2] and in experiment [3] were 6 nM, 25 nM and 17 nM, respectively.
